Patent US7211596B2, “Stable high-concentration injection containing pyrazolone derivative” (Mitsubishi Pharma Corporation, priority 2001, dated 2007)
Values after ≈ are worked out from the molar mass of the structure shown.

Assay: Test 1: solubility of Edaravone in various aqueous solubilizer solutions (saturated solution at 4° C., HPLC)
Assay type: physicochemical
Settings: aqueous with cosolvent or surfactant or cyclodextrin, thermodynamic from solid
Experimental: Water for injection (5 mL) was added to 5 mL of each of ethanol, propylene glycol, polyethylene glycol 400 and N,N-dimethylacetamide widely used as a solubilizer for an intravenous injection, followed by stirring. Edaravone was added to the resulting aqueous solubilizer solution and the mixture was stirred in a thermostat maintained at 4° C. by using a stirrer at a fixed but not bubbling speed all day and night. After completion of the stirring, a portion of Edaravone which had remained undissolved was checked visually to confirm that each solution thus obtained was a saturated aqueous solution of Edaravone. Then, the solution was quickly filtered through a membrane filter (pore size: 0.45 μm) kept at 4° C. and the amount of Edaravone contained in the filtrate was measured by HPLC method as explained below. Further, the maximum amount of each of the solubilizers used a day as an injection for intravenous administration was also shown (Iyakuhin-tenkabutu-jiten 2000 (published by Yakuji-nippou-sha), p. 127, 264 and 229 to 230. The maximum amount of ethanol was calculated based on the amount used for NIMOTOP IV (registered trademark, Bayer Co.)) and its solubilizing effect on Edaravone was calculated as a numerical term.
Measuring Method by HPLC and its Conditions:
By liquid chromatography (LC) using ethyl paraaminobenzoate as an internal standard substance, a peak area ratio of Edaravone to the internal standard substance was found and based on it, the concentration of Edaravone was determined. • Detector: Ultraviolet spectrophotometer (wavelength measured: 240 nm) • Column: A stainless tube having inside diameter of about 4 mm and length of about 15 cm and filled with octadecylsilylated silica-gel 5 μm was used at a fixed temperature near 50° C. • Mobile phase: A (3:1) mixed solution of 10 mM aqueous acetic acid solution and methanol, adjusted to pH 5.5 with aqueous ammonia • Flow rate: adjusted so that the retention time of Edaravone would be about 8 minutes.

`CC1=NN(c2ccccc2)C(=O)C1` [Edaravone, 3-Methyl-l-phenyl-2-pyrazolin-5-one] showed a solubility (50 v/v % N,N-dimethylacetamide in water, in 50 v/v % N,N-Dimethylacetamide, 4° C.) of 20 mg/mL (≈ 115 mM), a solubility (50 v/v % ethanol in water, in 50 v/v % Ethanol, 4° C.) of 10 mg/mL (≈ 57.4 mM) and a solubility (50 v/v % polyethylene glycol 400 in water, in 50 v/v % Polyethylene glycol 400, 4° C.) of 13 mg/mL (≈ 74.6 mM). For the same molecule, the solubility (50 v/v % propylene glycol in water, in 50 v/v % Propylene glycol, 4° C.) was 6 mg/mL (≈ 34.4 mM).
